The target of one test is PAK1 (Homo sapiens, UniProt Q13153). Nature of the test: In vitro PAK inhibition assay (SelectScreen, Ser/Thr 19 peptide). It counts as biochemical. The essentials: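 Ten-point, 3-fold compound series at 1% final DMSO were incubated with enzyme, Ser/Thr 19 peptide and ATP for 60 min at room temperature. Buffer was HEPES pH 7.5 (50 mM) with 10 mM MgCl2, 1 mM EGTA, 0.01% BRIJ-35. A 60 min development step preceded the fluorescence read converted to % phosphorylation.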

Another test has as its target PAK2 (PAK65) (Homo sapiens, UniProt Q13177). The experiment in a line: In vitro PAK inhibition assay (SelectScreen, Ser/Thr 20 peptide). Type of test: biochemical. The procedure, abridged: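 Ten-point threefold compound dilutions (1% DMSO) were incubated with PAK2 (0.29-6 ng) and Ser/Thr 20 substrate (2 μM) for 60 min at room temperature in HEPES pH 7.5 buffer with MgCl2, EGTA and BRIJ-35.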

The next test concerns the target PAK3 (Homo sapiens, UniProt O75914). Described as above. Type of test: biochemical. The essentials:
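Fluorescence-based development format: after a 60-min room-temperature kinase reaction and 60-min protease development, percent phosphorylation of Ser/Thr 20 peptide calculated via phosphopeptide controls. Buffer 50 mM HEPES pH 7.5, 10 mM MgCl2, 1 mM EGTA, 0.01% BRIJ-35; compounds at 1% DMSO, 10-point 3-fold dilution series.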

The target in a further test is PAK4 (Homo sapiens, UniProt O96013). The description is as above. It counts as biochemical. The procedure, abridged: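 Ten-point, 3-fold compound series (1% DMSO) incubated 1 h at room temperature with PAK4 (0.1-0.75 ng) and 2 μM Ser/Thr 20 peptide, HEPES pH 7.5 buffer with MgCl2, EGTA, BRIJ-35. Development reagent cleaves non-phosphorylated peptide; fluorescence emission ratio gives % phosphorylation, fitted sigmoidally for IC50.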
Sequence of PAK4 (O96013 whole entry): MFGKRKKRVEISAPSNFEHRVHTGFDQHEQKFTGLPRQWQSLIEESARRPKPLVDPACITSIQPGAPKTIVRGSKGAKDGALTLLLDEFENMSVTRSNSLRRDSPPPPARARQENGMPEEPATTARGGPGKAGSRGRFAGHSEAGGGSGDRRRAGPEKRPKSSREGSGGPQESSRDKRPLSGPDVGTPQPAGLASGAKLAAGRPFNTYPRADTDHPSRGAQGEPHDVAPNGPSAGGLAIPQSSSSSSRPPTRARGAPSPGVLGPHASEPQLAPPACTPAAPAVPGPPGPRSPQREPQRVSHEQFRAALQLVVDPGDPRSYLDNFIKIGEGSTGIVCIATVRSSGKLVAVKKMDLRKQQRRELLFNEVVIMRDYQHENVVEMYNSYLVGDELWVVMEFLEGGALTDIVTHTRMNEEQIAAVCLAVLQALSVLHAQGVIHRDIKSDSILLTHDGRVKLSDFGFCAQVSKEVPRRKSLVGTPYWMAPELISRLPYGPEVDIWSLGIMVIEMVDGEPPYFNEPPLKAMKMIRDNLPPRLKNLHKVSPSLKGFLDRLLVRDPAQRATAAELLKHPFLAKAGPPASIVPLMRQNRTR

Another test deals with Nf2−/− SC4 cells. The experiment in a line: Growth inhibition of NF2 deficient cells (CellTiter-Glo). Type of test: cell-based, mouse. Particulars: 1 uM concentration for 72 hours, FIG. 4. The method, then: (§1) NF2 deficient cell lines were cultured in the appropriate medium. Once enough cells have propagated, plates of all adherent lines were seeded at 5,000-10,000 cells/well (depending on cell line) in a total volume of 50 μL, and plates of all suspension lines at 10,000-20,000 cells/well (depending on cell line) in a total volume of 50 μL. Plates were placed in a humidified cell culture incubator overnight to allow adherent cells to attach.
(§2) 10 mM stocks of each PAK inhibitor compound in DMSO were prepared. Dilutions were performed with media to provide 1% DMSO 2× stock solutions of each PAK inhibitor compound.
50 μL of all PAK inhibitor compound 2× stocks were added to appropriate wells already containing 50 μL of cells and medium to expose cells to the final concentrations of compounds required. 50 μL of media was added to media and cell control wells and 50 μL of mix to vehicle control wells. At the same time as drug exposure, a CTG (CellTiter-Glo Assay) assay was performed on the 0 hr plate to obtain a 0 hr count. […]
At the end of the 72 hour exposure period, plates were removed for a CTG assay from 37° C., 5% CO2 incubator and place on the bench at room temperature for 30 mins. […] Luminescence for each well was determined.
Growth inhibition percent was calculated using the following equation: (Growth %=(Sample Value−T0Ave)/(Max−T0Ave)*100). […]
In general terms: Cellular ATP, detected with luciferase, serves as a proxy for viable cell number.

For test [1], the system named is NF2−/− mesothelioma cells (NCI-H226). Described as above. Type of test: cell-based. Particulars: 0 μM-30 μM, 72 hours, FIG. 7. The method, then: as §1, §2
(§3) 50 μL of all PAK inhibitor compound 2× stocks were added to appropriate wells already containing 50 μL of cells and medium to expose cells to the final concentrations of compounds required. 50 μL of media was added to media and cell control wells and 50 μL of mix to vehicle control wells. At the same time as drug exposure, a CTG (CellTiter-Glo Assay) assay was performed on the 0 hr plate to obtain a 0 hr count. Cells were exposed to PAK inhibitor compounds or a DMSO control for 72 hours. Following the 72 hour exposure period, all remaining plates were assayed using CTG.
(§4) At the end of the 72 hour exposure period, plates were removed for a CTG assay from 37° C., 5% CO2 incubator and place on the bench at room temperature for 30 mins. 100 μL CTG reagent was added to each well, mixed for 2 minutes, followed by a further 10 minute incubation at room temperature. Luminescence for each well was determined.
(§5) Growth inhibition percent was calculated using the following equation: (Growth %=(Sample Value−T0Ave)/(Max−T0Ave)*100).
NF2^−/− mesothelioma cells (e.g., NCI-H226 cells) were treated with varying concentrations of a PAK inhibitor compound disclosed in Examples 33, 84, or 122.

The next test deals with EBC-1 cells. The experiment in a line: Growth inhibition of PAK1 amplified NSCLC cells (CellTiter-Glo). Type of test: cell-based. Particulars: 0 μM-30 μM, 72 hours, FIG. 8. The method, then:
(§6) The PAK1 amplified cell lines were cultured in the appropriate medium. Once enough cells have propagated, plates of all adherent lines were seeded at 5,000-10,000 cells/well (depending on cell line) in a total volume of 50 μL, and plates of all suspension lines at 10,000-20,000 cells/well (depending on cell line) in a total volume of 50 μL. Plates were placed in a humidified cell culture incubator overnight to allow adherent cells to attach.
as §2
(§7) 50 μL of media was added to media and cell control wells and 50 μL of mix to vehicle control wells. At the same time as drug exposure, a CTG (CellTiter-Glo Assay) assay was performed on the 0 hr plate to obtain a 0 hr count. Cells were exposed to PAK inhibitor compounds or a DMSO control for 72 hours. Following the 72 hour exposure period, all remaining plates were assayed using CTG.
as §4, §5

The test system of the next test is NCI-H520 cells. Described as above. Type of test: cell-based. Particulars: 0 μM-30 μM, 72 hours, FIG. 9. The method, then: as §6, §2, §7, §4, §5
In the next test the test system is SK-MES-1 cells. The description is as above. Type of test: cell-based. Particulars: 0 μM-30 μM, 72 hours, FIG. 10. The procedure: as §6, §2, §7, §4, §5
A further test concerns NF2−/− Schwannoma cells. The experiment in a line: Growth inhibition of NF2 deficient cells (CellTiter-Glo). Type of test: cell-based. Particulars: 1 uM concentration, FIG. 6. The procedure:
as §1, §2, §3, §4, §5
NF2^−/− Schwannoma cells were treated with a DMSO control or a PAK inhibitor compound (1 uM concentration) disclosed in Examples 101, 122, or 190.

As a reminder, the IC50 is the concentration that inhibits the measured activity by half.

Where only a bound is given, the exact number is not on record here.

Sequence of PAK2 (PAK65) (Q13177 whole entry): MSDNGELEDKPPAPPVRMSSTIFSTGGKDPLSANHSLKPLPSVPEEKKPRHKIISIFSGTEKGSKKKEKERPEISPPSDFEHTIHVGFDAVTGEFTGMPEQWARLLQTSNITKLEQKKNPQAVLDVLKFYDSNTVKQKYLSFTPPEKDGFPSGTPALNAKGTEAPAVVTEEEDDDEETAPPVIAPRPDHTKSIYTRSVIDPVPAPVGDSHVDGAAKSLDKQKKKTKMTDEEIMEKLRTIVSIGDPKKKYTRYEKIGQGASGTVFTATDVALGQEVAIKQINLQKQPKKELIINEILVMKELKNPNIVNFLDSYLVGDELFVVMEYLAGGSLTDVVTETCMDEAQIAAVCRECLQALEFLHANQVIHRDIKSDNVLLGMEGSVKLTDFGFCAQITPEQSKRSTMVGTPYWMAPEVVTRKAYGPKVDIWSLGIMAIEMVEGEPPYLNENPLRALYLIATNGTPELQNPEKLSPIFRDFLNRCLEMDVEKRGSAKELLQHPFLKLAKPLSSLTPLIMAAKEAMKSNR
Sequence of PAK3 (O75914 whole entry): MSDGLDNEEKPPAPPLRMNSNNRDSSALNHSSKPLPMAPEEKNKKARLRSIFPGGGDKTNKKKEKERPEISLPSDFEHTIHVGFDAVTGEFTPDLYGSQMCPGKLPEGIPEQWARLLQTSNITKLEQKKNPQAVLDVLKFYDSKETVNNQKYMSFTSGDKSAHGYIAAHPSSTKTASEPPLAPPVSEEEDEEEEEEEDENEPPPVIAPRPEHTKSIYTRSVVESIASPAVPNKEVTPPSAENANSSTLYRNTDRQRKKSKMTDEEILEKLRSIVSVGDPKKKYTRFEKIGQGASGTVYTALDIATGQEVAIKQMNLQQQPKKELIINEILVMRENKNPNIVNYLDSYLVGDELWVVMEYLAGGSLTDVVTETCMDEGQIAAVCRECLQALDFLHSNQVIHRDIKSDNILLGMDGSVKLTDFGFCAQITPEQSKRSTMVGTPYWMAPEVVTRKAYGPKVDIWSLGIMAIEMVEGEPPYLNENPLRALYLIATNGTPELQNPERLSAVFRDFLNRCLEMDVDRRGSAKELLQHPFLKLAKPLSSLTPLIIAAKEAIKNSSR
Sequence of PAK1 (Q13153 whole entry): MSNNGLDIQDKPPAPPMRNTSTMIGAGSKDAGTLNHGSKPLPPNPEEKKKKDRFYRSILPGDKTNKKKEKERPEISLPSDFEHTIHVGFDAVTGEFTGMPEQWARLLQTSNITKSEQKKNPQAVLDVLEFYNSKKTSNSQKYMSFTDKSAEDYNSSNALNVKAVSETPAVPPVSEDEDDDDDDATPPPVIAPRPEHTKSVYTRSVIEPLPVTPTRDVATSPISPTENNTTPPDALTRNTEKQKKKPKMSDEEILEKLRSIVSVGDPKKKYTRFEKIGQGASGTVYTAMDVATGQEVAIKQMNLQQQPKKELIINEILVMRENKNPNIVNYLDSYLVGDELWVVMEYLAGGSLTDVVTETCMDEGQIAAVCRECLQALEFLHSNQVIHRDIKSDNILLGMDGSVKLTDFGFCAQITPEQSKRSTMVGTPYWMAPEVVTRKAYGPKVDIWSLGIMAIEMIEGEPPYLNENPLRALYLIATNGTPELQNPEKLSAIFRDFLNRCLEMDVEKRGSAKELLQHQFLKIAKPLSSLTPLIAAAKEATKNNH

For `CCn1c(=O)c(-c2ccc(-c3cccs3)cc2)cc2cnc(Nc3ccc(N4CCN(C)CC4)cc3)nc21`, the IC50 is 0.05 to 0.5 µM against PAK1, 0.5 to 5 µM at PAK2 (PAK65), > 5 µM at PAK3 and ≥ 5 µM against PAK4.

Consider `CCn1c(=O)c(-c2ccc(-c3cncs3)cc2)cc2cnc(Nc3ccc(N4CCN(C)CC4)cc3)nc21`, for which the IC50 against PAK1 is 0.05 to 0.5 µM; on PAK2 (PAK65) it was 0.5 to 5 µM; at PAK3, > 5 µM; against PAK4 it was ≥ 5 µM.

Consider `CCn1c(=O)c(-c2ccc(-c3cscn3)cc2Cl)cc2cnc(Nc3ccc(N4CCN(C)CC4)cc3)nc21`, for which the IC50 was < 0.05 µM against PAK1, 0.05 to 0.5 µM on PAK2 (PAK65), 0.05 to 0.5 µM against PAK3 and ≥ 5 µM at PAK4.

For `CCn1c(=O)c(-c2ccc(C3CC3)s2)cc2cnc(Nc3ccc(N4CCN(C)CC4)cc3)nc21`, the IC50 against PAK1 is > 5 µM; against PAK2 (PAK65), > 5 µM; against PAK3, > 5 µM; against PAK4, ≥ 5 µM.

Turning to `CCn1c(=O)c(-c2ccc(-c3csc(C)n3)s2)cc2cnc(Nc3ccc(N4CCN(C)CC4)cc3)nc21`, the IC50 was > 5 µM at PAK1, > 5 µM against PAK2 (PAK65), > 5 µM at PAK3 and ≥ 5 µM against PAK4.

On to `CCn1c(=O)c(-c2ccc(-c3noc(C)n3)s2)cc2cnc(Nc3ccc(N4CCN(C)CC4)cc3)nc21`, for which the IC50 on PAK1 was > 5 µM; at PAK2 (PAK65), > 5 µM; against PAK3 it was > 5 µM; against PAK4, ≥ 5 µM.

On to `CCn1c(=O)c(-c2ccc(-c3ccccn3)s2)cc2cnc(Nc3ccc(N4CCN(C)CC4)cc3)nc21`, for which the half-inhibitory concentration (IC50) on PAK1 was > 5 µM; on PAK2 (PAK65), > 5 µM; on PAK3 it was > 5 µM; on PAK4, ≥ 5 µM.

On to `CCn1c(=O)c(-c2ccc(-c3cccnc3)s2)cc2cnc(Nc3ccc(N4CCN(C)CC4)cc3)nc21`, for which the half-maximal inhibitory concentration (IC50) was > 5 µM against PAK1, > 5 µM against PAK2 (PAK65), > 5 µM against PAK3 and ≥ 5 µM against PAK4.

Regarding `CCn1c(=O)c(-c2ccc(-c3nnn[nH]3)s2)cc2cnc(Nc3ccc(N4CCN(C)CC4)cc3)nc21`, the IC50 was > 5 µM on PAK1, > 5 µM against PAK2 (PAK65), > 5 µM on PAK3 and ≥ 5 µM against PAK4.

On to `CCn1c(=O)c(-c2ccc(-c3nnn[nH]3)cc2Cl)cc2cnc(Nc3ccc(N4CCN(C)CC4)cc3)nc21`, for which the IC50 at PAK1 is > 5 µM; on PAK2 (PAK65) it was > 5 µM; at PAK3, > 5 µM; on PAK4, ≥ 5 µM.

As to `CCn1c(=O)c(-c2ccc(-c3ccc(OC)nc3)cc2Cl)cc2cnc(Nc3ccc(N4CCN(C)CC4)cc3)nc21`, the half-maximal inhibitory concentration (IC50) is < 0.05 µM on PAK1, < 0.05 µM on PAK2 (PAK65), < 0.05 µM against PAK3 and 0.05 to 0.5 µM against PAK4.

With `CCn1c(=O)c(-c2ccc(-c3cccnc3F)cc2Cl)cc2cnc(Nc3ccc(N4CCN(C)CC4)cc3)nc21` [Example 33], the “cell number compared to DMSO control treated cells” value with Nf2−/− SC4 cells is recorded as “reduction in cell number”. The “growth (%) with increasing concentration” value was “the growth (%) of the cells reduced” in test [1], “the growth (%) decreased” in the test on EBC-1 cells, “the growth (%) decreased” with NCI-H520 cells and “the growth (%) decreased” in the test on SK-MES-1 cells.

With `CCn1c(=O)c(-c2ccc(-c3cnc(C)s3)cc2Cl)cc2cnc(Nc3ccc(C4CCN(C)CC4)cc3)nc21` [Example 101], the “cell number compared to DMSO control treated cells” value in the test with NF2−/− Schwannoma cells is “reduction in cell number”.

For `CCn1c(=O)c(-c2ccc(-c3noc(C)n3)cc2Cl)cc2cnc(Nc3ccc(C4CCN(C)CC4)cc3)nc21` [Example 122], the “cell number compared to DMSO control treated cells” value in the test with NF2−/− Schwannoma cells is on record as “reduction in cell number”. The “growth (%) with increasing concentration” value is reported as “the growth (%) of the cells reduced” in [1], “the growth (%) decreased” in the test on EBC-1 cells, “the growth (%) decreased” in the test on NCI-H520 cells and “the growth (%) decreased” in the test with SK-MES-1 cells.

For the molecule `CCn1c(=O)c(-c2ccc(-c3cncc(C)n3)cc2Cl)cc2cnc(Nc3ccc(C4CCN(C)CC4)cc3)nc21` [Example 190], the “cell number compared to DMSO control treated cells” value in the test on NF2−/− Schwannoma cells is listed as “reduction in cell number”.

Take `CCn1c(=O)c(-c2ccc(-c3cccnc3)cc2Cl)cc2cnc(Nc3ccc(N4CCN(C(C)C)CC4)cc3)nc21` [drawing 650]: the IC50 was < 0.05 µM against PAK1, < 0.05 µM against PAK2 (PAK65), < 0.05 µM at PAK3 and ≥ 5 µM on PAK4.

As for `CCn1c(=O)c(-c2ccc(-c3cccnc3)cc2Cl)cc2cnc(Nc3ccc(N4CCN(C(C)C)CC4)cc3)nc21` [drawing 655], the half-maximal inhibitory concentration (IC50) against PAK1 is < 0.05 µM; against PAK2 (PAK65), < 0.05 µM; against PAK3, < 0.05 µM; on PAK4 it was 0.05 to 0.5 µM.

The values above are taken from US20140163026A1, “8-ETHYL-6-(ARYL)PYRIDO[2,3-D]PYRIMIDIN-7(8H)-ONES FOR THE TREATMENT OF NERVOUS SYSTEM DISORDERS AND CANCER” (Afraxis Holdings, Inc., priority 2011, published 2014).
